According to US5214048A, “Oxetanocins” (priority 1987, dated 1993):
In brackets after ≈: the same amount, converted by molar mass.

Columns and labels:
[1] = system: HIV (human immunodeficiency virus); experiment: Anti-HIV activity (development of virus antigen in MT-4 cells); format: cell-based; conditions: DMSO only 80 to 90%
Experimental: (b) Anti-HIV (human immunodeficiency virus) activity
MT-4 cell (about 100,000 cells/ml) was added into a 24 well tray, and then 100 microliters of a solution containing a predetermined quantity of a compound of this invention was added. After culturing it at 37° C. for 5 hours in 5% (v/v) carbon dioxide incubator, 10^3 to 10^4 infection units of HIV was added and cultured for 4 days. Then, a part of the culture fluid was coated onto a slide glass and immobilized with acetone, after which development of virus antigen was observed by indirect fluorescent antibody method.
As the primary antibody of the fluorescent antibody method, a serum of AIDS patient was used. As its secondary antibody, FITC-labelled […] was used.

[2] = system: B lymphocyte (spleen cells stimulated by LPS); experiment: Inhibition of B lymphocyte blastgenesis caused by LPS; format: cell-based, BALB/C mouse; conditions: for inhibition at 4 µg/mL / inhibition at 20 µg/mL: Mus musculus, Lymphocyte, read-out: Inhibitory rate (%) on blastgenesis of B lymphocyte caused by LPS; for inhibition at 4 µg/mL: 4.0 μg/ml; for inhibition at 20 µg/mL: 20.0 μg/ml
Experimental: (§1) In the similar method to Waithe et al. (Waithe et al., Handbook of Experimental Immunology, 26, 1, 1978), compounds OXT-X, 2-amino-OXT-A and OXT-G were examined for the effect on lymphocyte blastgenesis.
Inhibition of B lymphocyte blastgenesis caused by LPS (lipopolysaccharide)
According to the method of Test Example 1 (except that 100 μg/ml of Escherichia coli LPS was added in place of Con A), the intake of ^3 [H]-thymidine into blastgenesis B cells was measured. The inhibitory rate of the test sample was similarly determined.

[3] = system: cytomegalovirus (A01169 strain); experiment: Anti-cytomegalovirus activity (plaque formation on human fetal fibroblasts); format: cell-based; conditions: for IC50: Human betaherpesvirus 5, Fibroblast, 240 h, human fetal fibroblasts, 10 days
[4] = system: T lymphocyte (spleen cells stimulated by Con A); experiment: Inhibition of T lymphocyte blastgenesis caused by Con A; format: cell-based, BALB/C mouse; conditions: for inhibition at 0.8 µg/mL / inhibition at 4 µg/mL / inhibition at 20 µg/mL: Mus musculus, T-lymphocyte, read-out: Inhibitory rate (%) on T lymphocyte blastgenesis caused by Con A; for inhibition at 0.8 µg/mL: 0.8 μg/ml; for inhibition at 4 µg/mL: 4.0 μg/ml; for inhibition at 20 µg/mL: 20.0 μg/ml
Experimental: as §1
Inhibition of T lymphocyte blastgenesis caused by Con A:
Spleen cells of BALB/C mouse were dividingly poured into microplate at a rate of 2×10^5 cells/0.2 ml/well. Test compounds of varied concentration were added to wells other than control group. Further, Con A was added to all the wells at a rate of 5 micrograms/ml. Then, the cell suspensions were cultured at 37° C. for 72 hours in a culture chamber having an atmosphere of 5% v/v carbon dioxide. The extent of lymphocyte blastgenesis was determined by adding 1 μci/well of ^3 [H]-thymidine 6 hours before completion of culture and measuring the intake into cultured cells by means of a liquid scintillation counter. Numerical value (1-B dpm/A dpm)×100 was taken as inhibitory rate of each sample compound on blastgenesis, wherein A dpm was intake count in the case of adding Con A only and B dpm was intake count in the case of adding Con A and the sample compound.

MT-4 cells = experiment: Cell denaturation of MT-4 cells without virus; format: cell-based; conditions: 100 μg/ml
[5] = system: duck hepatitis B virus (DHBV); experiment: Efficacy against DHBV-infected duck (dot-blot hybridization of sera); format: in vivo; conditions: 6 days
Experimental: (c) Efficacy of OXT-G and 2-Amino-OXT-A against DHBV-infected Duck Newborn ducklings were intraperitoneally infected with 50 μl of duck hepatitis B virus (DHBV) containing sera. Persistent infection in ducks was confirmed by dot-blot hybridization of sera taken from 6 week old ducks. Ducks were intraperitoneally treated with the indicated doses of OXT-G and 2-Animo-OXT-A once a day for 6 days. After treatment of OXTs sera were collected and examined for the presence of DHBV-DNA by dot-blot hybridization as ^32 p-labeled DHBV DNA probe.

[6] = system: herpes simplex virus type-2 (HSV-2) strain 186; experiment: Effect of treatment against HSV-2 infection in mice; format: in vivo, ICR mice; conditions: 5 days
Experimental: (a) Effect of treatment with OXTs against HSV-2 infection in mice
The 8-week old male ICR mice were inoculated intraperitoneally (ip) with herpes simplex virus type-2(HSV-2)strain 186 at 2.5×10^5 PFU/0.2 ml/mouse. OXTs were administered ip once a day with the indicated doses for 5 days, starting 6 hours after inoculation. The survival rates (%)of mice treated with OXTs were evaluated at least for 3 weeks after inoculation.

[7] = system: murine cytomegalovirus (MCMV) Smith strain; experiment: Efficacy against MCMV infection in mice, body weight; format: in vivo, ICR mice; conditions: 10 mg/kg/day
Experimental: (b) Efficacy of treatment with OXT-G against MCMV infection in mice The 4-week old male ICR mice was inoculated intraperitoneally with Smith strain of murine cytomegalovirus (MCMV) at 1×10^5 PFU/0.2 ml and treated with 10 mg/kg/day of OXT-G once a day for 5 days, starting 6 hours after inoculation. The mortality and changes in body weight were monitored every day.

[8] = system: murine cytomegalovirus (MCMV) Smith strain; experiment: Titers of MCMV in various tissues of mice; format: in vivo, ICR mice; conditions: for Virus titer: 6 days after infection

Cell denaturation (MT-4 cells) | Compound | Development of virus antigen (%) ([1]; 1 μg/ml) | Development of virus antigen (%) ([1]; 10 μg/ml) | Development of virus antigen (%) ([1]; 100 μg/ml) | effect on blastgenesis of B lymphocyte stimulated by LPS [2] | inhibition at 4 µg/mL [2] [%] | inhibition at 20 µg/mL [2] [%] | anti-cytomegalovirus inhibitory action [3] | IC50 [3] [mg/L] | effect on blastgenesis of T lymphocyte stimulated by Con A [4] | inhibition at 0.8 µg/mL [4] [%] | inhibition at 4 µg/mL [4] [%] | inhibition at 20 µg/mL [4] [%] | Content (%) of DHBV in sera ([5]; 20 mg/kg/day ip) [%] | Content (%) of DHBV in sera ([5]; 50 mg/kg/day ip) [%] | Content (%) of DHBV in sera ([5]; 100 mg/kg/day ip) [%] | Survivor/Total ([6]; 10 mg/kg/day ip) | survival rate (%) ([6]; 10 mg/kg/day ip) | further results
±~+ | Nc1nc(N)c2ncn([C@@H]3O[C@H](CO)[C@H]3CO)c2n1 [2-Amino-OXT-A] | 30 | 26 | 5 | markedly suppressed | 23 | 93 | particularly outstanding in the inhibitory action | 2 (≈ 7.51 µM) | markedly suppressed | 21 | 94 | 99 | 28 | 18 | 8 | 7/10 | 70 | –
– | Nc1ncnc2c1ncn2[C@@H]1O[C@H](CO)[C@H]1CO [OXT-A, reference compound] | – | – | – | – | – | – | – | 13 (≈ 51.7 µM) | – | – | – | – | – | – | – | – | – | –
– | Nc1nc2c(ncn2[C@@H]2O[C@H](CO)[C@H]2CO)c(=O)[nH]1 [OXT-G] | 42 | 17 | – | markedly suppressed | 64 | 93 | particularly outstanding in the inhibitory action | 1 (≈ 3.74 µM) | markedly suppressed | 85 | 96 | 100 | 9 | 25 | 3 | 8/10 | 80 | body weight of MCMV-infected mice [7]: maintained their body weight on the initial level for several days and gradually gained weight thereafter; Average (5 mice) of body weight ([7]; day 0): 18.0 g; Average (5 mice) of body weight ([7]; day 4): 20.0 g; Average (5 mice) of body weight ([7]; day 8): 24.5 g; Average (5 mice) of body weight ([7]; day 14): 31.0 g; Survivor/Total ([6]; 5 mg/kg/day ip): 3/10; survival rate (%) ([6]; 5 mg/kg/day ip): 30%; Survivor/Total ([6]; 20 mg/kg/day ip): 10/10; survival rate (%) ([6]; 20 mg/kg/day ip): 100%; Virus titer ([8]; Kidney): < 2 PFU/0.1 g tissue; Virus titer ([8]; Liver): < 2 PFU/0.1 g tissue; Virus titer ([8]; Lung): < 2 PFU/0.1 g tissue; Virus titer ([8]; Spleen): < 2 PFU/0.1 g tissue; quantity of MCMV recovered from the tissues ([8]; mouse, in vivo): significant reduction in the quantity of MCMV recovered from the tissues
– | O=c1[nH]cnc2c1ncn2[C@@H]1O[C@H](CO)[C@H]1CO [OXT-H, reference compound] | – | – | – | – | – | – | – | 18 (≈ 71.4 µM) | – | – | – | – | – | – | – | – | – | –
±~+ | O=c1[nH]c(=O)c2ncn([C@@H]3O[C@H](CO)[C@H]3CO)c2[nH]1 [OXT-X] | 66 | 52 | 5 | markedly suppressed | 8 | 27 | – | – | markedly suppressed | 11 | 36 | 71 | – | – | – | – | – | –
